In patent US11654161B2, “Compositions and methods for neuralgenesis” (priority 2016, dated 2023):

What was measured:
BMPS = test: Resazurin reduction cytotoxicity assay of BMPS after rotenone and MPP+ treatment; format: cell-based, human; settings: 24 h exposure
Description: DMSO was used as vehicle control. MPP+ working solutions were prepared in differentiation medium from 30 mM stocks to reach final concentrations of 10, 50, 100, 500, 1,000, 5,000 and 10,000 μM. Four independent experiments in 3 replicates were performed for each experimental condition (control and toxicant exposure for the different time points). […] Resazurin (7-Hydroxy-3H-phenoxazin-3-one 10-oxide) is a blue dye that is reduced into red fluorescent resorufin by redox reactions in viable cells. 100 μl Resazurin (2 mg/ml stock) were added directly to the 6 well plates (2 ml/well). Plates were incubated for 3 h at 37° C., 5% CO2. Subsequently, 50 μl of medium were transferred from each well in triplicates to a 96-well plate and fluorescence was measured at 530 nm/590 nm (excitation/emission) using a multi-well fluorometric reader CytoFluor series 4000 (PerSeptive Biosystems, Inc). Data were presented as mean±SD. Statistical analysis was performed using Dunnett's test.

Alpha-synuclein (SNCA) = test: Real time RT-PCR of BMPS after toxicant exposure: SNCA; format: cell-based, human; settings: for reduction of SNCA gene expression: 24 hours exposure, sub-cytotoxic concentrations
Description: (§1) Total RNA was extracted from aggregates every week up to 8 weeks of differentiation using Tripure (Roche, Switzerland) according to Chomczynski and Sacchi (1987). The same RNA extraction method was used to isolate RNA after toxicant treatment. RNA quantity and purity was determined using NanoDrop 2000c (Thermo Scientific). One microgram of RNA was reverse-transcribed using the M-MI V Promega Reverse Transcriptase (Promega) according to the manufacturer's recommendations. For miRNA reverse-transcription 60 ng of RNA were reverse transcribed using TaqMan microRNA Reverse transcription kit in combination with miRNA specific stem-loop primers, which are a part of TaqMAn microRNA expression assay. Upto eight stem-loop primers were multiplexed in one reaction.
(§2) The expression of genes was evaluated using specific Taqman® gene expression assays (Life Technologies). miRNA expression was analyzed using TaqMAn microRNA expression assay in combination with TaqMan miRNA Reverse Transcription kit using protocol described in [77]. […] Real time RT-PCRs were performed using a 7500 Fast Real Time system machine (Applied Biosystems). Fold changes were calculated using the 2(−ΔΔCt) method. β-actin and 18s were used as a housekeeping genes for mRNA and RNU44 for miRNA. There were no statistically significant differences in expression for β-actin, 18s, and RNU44. Data were presented as mean±SD, normalized to housekeeping genes and week 0.

NDUFB1, ATP5C1, ATP50 = test: Real time RT-PCR of BMPS after toxicant exposure: mitochondrial function genes; format: cell-based, human; settings: for Expression of genes related to mitochondrial function (NDUFB1, ATP5C1, ATP50): 24 hours exposure, 5 μM rotenone, 1000 μM MPP+; for Mitochondrial function genes (NDUFB1, ATP5C1, ATP50), MPP+ versus rotenone: BMPS treated with MPP+ or rotenone
Description: as §1, §2

[1] = system: PD-related genes (TH, TBR1, SNCA, KEAP1, NDUFB1, ATP5C1, ATP50 and CASP1); test: Real time RT-PCR of BMPS after toxicant exposure: PD-related gene panel; format: cell-based, human; settings: 5 μM rotenone, 1 mM MPP+
Excerpt: Induced pluripotent stem cells (iPSC)-derived human-relevant microphysiological systems (MPS) better mimic the organ level, but are too complex for chemical and drug screening. As described herein, a reproducible 3D brain MPS (BMPS) that differentiates into mature neurons and glial cells (astrocytes and oligodendrocytes), which reproduces the topology of neuronal-glial interactions and connectivity in the central nervous system was developed. […]
(§3) Total RNA was extracted from aggregates every week up to 8 weeks of differentiation using Tripure (Roche, Switzerland) according to Chomczynski and Sacchi (1987). […] RNA quantity and purity was determined using NanoDrop 2000c (Thermo Scientific). […]
(§4) The expression of genes was evaluated using specific Taqman® gene expression assays (Life Technologies). miRNA expression was analyzed using TaqMAn microRNA expression assay in combination with TaqMan miRNA Reverse Transcription kit using protocol described in [77]. […] Fold changes were calculated using the 2(−ΔΔCt) method. β-actin and 18s were used as a housekeeping genes for mRNA and RNU44 for miRNA. […]

KEAP1 = test: Real time RT-PCR of BMPS after toxicant exposure: KEAP1; format: cell-based, human; settings: 24 h exposure to 1 mM MPP+
Excerpt: In one embodiment, the model described herein is useful for studying Parkinson's disease (PD). Traditionally, PD has been described as a pre-synaptic degenerative process that affects dopaminergic neurons and induces a fundamental motor disorder, however, non-motor symptoms can also be present. Research in Parkinson's disease is experiencing an upswing at the moment, owing to a lack of curative drugs for the large number of patients. […] These model toxins are mainly used in mice and primates (and less in cell cultures) to model a disease state resembling PD. Human neurons, which would be most relevant, are not usually available and existing cell lines are only very poor substitutes. […]
as §3, §4

[2] = system: Tyrosine hydroxylase (TH) mRNA; test: Real time RT-PCR of BMPS after toxicant exposure: TH; format: cell-based, human; settings: for TH mRNA expression decreased by: 24 hours, 5 μM rotenone, 1000 E M MPP+; for TH gene expression compared to controls: BMPS treated with rotenone or MPP+
Description: as §1, §2

Caspase-1 (CASP1) = test: Real time RT-PCR of BMPS after toxicant exposure: Caspase-1; format: cell-based, human
Description: as §1
as §2, with “Data were presented as mean±SD, normalized to housekeeping genes and week 0.” left out

[3] = system: Reactive oxygen species (ROS); test: OxiSelect In Vitro ROS/RNS Assay in cellular medium of BMPS; format: cell-based, human; settings: 5 μM rotenone, 1000 μM MPP+
Excerpt: This is a fluorescence-based assay measuring the presence of total free radicals within a sample and was used according to the manufacturer's protocol. The quenched fluorogenic dye dichlorodihydrofluorescin-DiOxyQ (DCFH-DiOxyQ) which is similar to the popular 2′,7′-dichlorodihydrofluorescein diacetate (DCFH-DA) is first primed with a quench removal reagent. The resulted highly reactive non-fluorescent DCFH can react with present ROS species in the cell supernatant and is then oxidized to the highly fluorescent DCF (2′,7′-dichlorodihydroxyfluorescein). At every time point, 50 μl of the cell supernatant was added to a 96-well plate in triplicates and was mixed and incubated with the DCFH-DiOxyQ for 45 minutes. The fluorescence intensity was measured with a fluorescence microplate reader at 480 nm/530 nm (excitation/emission) and was proportional to the total ROS/RNS levels within the sample.

dopaminergic neurons = settings: for Alterations in other neurofilament 200-positive neurons: cytotoxic concentrations: 10 μM rotenone; for General cytotoxicity and effect on other neuronal types at higher concentrations: up to 50 μM rotenone, up to 5000 μM MPP+
Description: Initially, cytotoxicity experiments were performed to estimate sub-cytotoxic concentrations of these two compounds affecting only dopaminergic neurons (FIGS. 4A and 4C). […] Reactive oxygen species (ROS) were measured in the cellular medium using the OxiSelect™ In Vitro ROS/RNS Assay Kit (Cellbiolabs, San Diego, Calif.) as an indication of oxidative stress. […] Real time RT-PCR was performed in order to determine effects of both chemicals on genes related to PD, mitochondrial dysfunction and oxidative stress.
BMPS aggregates were collected at 2, 4 and 8 weeks. BMPS were fixed in 4% paraformaldehyde for 1 hour, washed 3 times in PBS, then incubated for 1 hour in blocking solution consisting of 5% normal goat serum (NGS) in PBS with 0.4% TritonX (Sigma). BMPS were then incubated at 4° C. for 48 hours with a combination of primary antibodies (Table 2) diluted in PBS containing 3% NGS and 0.1% TritonX. BMPS were washed in PBS 3 times after which they were incubated with the appropriate fluorophore-tagged secondary antibody for 1 hour in PBS with 3% NGS at room temperature. Double immunostaining was visualized using the proper combination of secondary antibodies (e.g., goat anti-rabbit secondary antibody conjugated with Alexa 594 and goat anti-mouse secondary antibody conjugated with Alexa 488 (Molecular Probes). Nuclei were counterstained with DRAQ5 dye (Cell Signaling; 1:5000 in 1×PBS) or NucRed Live (Molecular Probes) for 15 minutes before mounted on slides with coverslips and Prolong Gold antifade reagent (Molecular Probes); BMPS used as negative controls for immunostaining were processed omitting the primary antibody. Images were taken using a Zeiss UV-LSM 510 confocal microscope. The experiments were performed in duplicates; at least three different fields of view were analyzed for each combination of antibodies. 3D reconstruction was done using Imaris 7.6.4 software for scientific imaging.

T-box brain 1 (TBR1) = test: Real time RT-PCR of BMPS after toxicant exposure: TBR1; format: cell-based, human; settings: for reduction of TBR1 gene expression: 24 hours exposure, sub-cytotoxic concentrations; for TBR1 gene expression: non-cytotoxic concentrations
Description: as §1, §2

Down's syndrome model = test: Down's syndrome BMPS exposed to compounds that induce oxidative stress, compared to healthy donor model; settings: Down's syndrome iPSC-derived model
Description: FIG. 5A depicts morphological characterization with immunostaining of neurons (MAP2, Syn1, TH, SYP), neural precursor cells (nestin) and glial cells (GFAP) at 8 weeks of differentiation.

Row | SMILES | cytotoxic concentrations (BMPS) [µM] | reduction of SNCA gene expression (Alpha-synuclein (SNCA)) [%] | Expression of genes related to mitochondrial function (NDUFB1, ATP5C1, ATP50) (NDUFB1, ATP5C1, ATP50) | Mitochondrial function genes (NDUFB1, ATP5C1, ATP50), MPP+ versus rotenone (NDUFB1, ATP5C1, ATP50) | Expression of PD-related genes [1] | TH mRNA expression decreased by [2] | TH gene expression compared to controls [2] | ROS production ([3]; 12 hours exposure) | ROS production ([3]; 24 hours exposure) | Alterations in other neurofilament 200-positive neurons (dopaminergic neurons; 1000 μM MPP+) | General cytotoxicity and effect on other neuronal types at higher concentrations (dopaminergic neurons) | reduction of TBR1 gene expression (T-box brain 1 (TBR1)) [%] | TBR1 gene expression (T-box brain 1 (TBR1)) | further results
1 | C[n+]1ccc(-c2ccccc2)cc1 [MPP+, 1-methyl-4-phenylpyridinium] | 1000 | 41±40 | tended to decrease in expression but these changes were not statistically significant | down-regulated, more strongly | altered expression of PD-related genes | 70%±9 | decreased TH gene expression compared to controls | no statistically significant changes | increase in ROS production | did not show any alterations in other neurofilament 200-positive neurons | led to general cytotoxicity and affected also other neuronal types stained positive for neurofilament 200 | 76±22 | down-regulated | Statistical significance of change in SNCA expression (Alpha-synuclein (SNCA); BMPS exposed to 1 mM MPP+): no statistically significant changes in SNCA expression; KEAP1 expression (oxidative stress marker) (KEAP1): increase in KEAP1 expression; Caspase-1 (CASP1) expression (Caspase-1 (CASP1); 24 h exposure to 1 NM MPP+): increased significantly; Caspase-1 gene expression (Caspase-1 (CASP1); 24 hours exposure to MPP+): increased; Disruption of dopaminergic neurons observed by immunohistochemistry (dopaminergic neurons; 5 μM rotenone, 100 μM MPP+): disrupted dopaminergic neurons; Dopaminergic effects at concentrations selected for further studies (dopaminergic neurons; 5 μM rotenone, 1000 μM MPP+): induced clear and selective dopaminergic effects; Selective disruption of dopaminergic neurons but not of any other cell types (immunohistochemistry) (dopaminergic neurons; 24 h, 1p M rotenone, 100 μM MPP+, BMPS differentiated 4 weeks): Selective disruption of dopaminergic neurons but not of any other cell types; Degeneration of dopaminergic neurons (dopaminergic neurons; treatment of BMPS (FIGS. 4E and 4F)): induced specific degeneration of dopaminergic neurons
2 | C[n+]1ccc(-c2cc[n+](C)cc2)cc1 [paraquat] | – | – | – | – | – | – | – | – | – | – | – | – | – | Response of Down's syndrome model compared to model from healthy donors (Down's syndrome model): more sensitive to these compounds than the healthy model
3 | C=C(C)[C@H]1Cc2c(ccc3c2O[C@@H]2COc4cc(OC)c(OC)cc4[C@@H]2C3=O)O1 [rotenone] | 10 | 72±6 | tended to decrease in expression but these changes were not statistically significant | down-regulated | altered expression of PD-related genes | 84%±11 | decreased TH gene expression compared to controls | no statistically significant changes | increase in ROS production | did not show any alterations in other neurofilament 200-positive neurons | led to general cytotoxicity and affected also other neuronal types stained positive for neurofilament 200 | 70±13 | down-regulated | SNCA gene expression (Alpha-synuclein (SNCA); 5 μM rotenone, 1 mM MPP+): Reduction of SNCA
